US7491729B2, “3-Substituted 3,4-dihydro-thieno[2,3-d]pyrimidin-4-one derivatives, production and use thereof” (Abbott GmbH & Co. KG, priority 2002, dated 2009)

How the values were obtained:
[1] = biological target: T1, 5-HT1A receptors (Homo sapiens, UniProt P08908); experiment: Receptor binding studies, displacement of (3H)-8-OH-DPAT on membranes of HEK293 cells expressing 5-HT1A receptors; conditions: 0.2 nM (3H)-8-OH-DPAT, 22° C.
T1 construct: expressed in transfected cells; host or cells: HEK293
T1 sequence (P08908 1-422): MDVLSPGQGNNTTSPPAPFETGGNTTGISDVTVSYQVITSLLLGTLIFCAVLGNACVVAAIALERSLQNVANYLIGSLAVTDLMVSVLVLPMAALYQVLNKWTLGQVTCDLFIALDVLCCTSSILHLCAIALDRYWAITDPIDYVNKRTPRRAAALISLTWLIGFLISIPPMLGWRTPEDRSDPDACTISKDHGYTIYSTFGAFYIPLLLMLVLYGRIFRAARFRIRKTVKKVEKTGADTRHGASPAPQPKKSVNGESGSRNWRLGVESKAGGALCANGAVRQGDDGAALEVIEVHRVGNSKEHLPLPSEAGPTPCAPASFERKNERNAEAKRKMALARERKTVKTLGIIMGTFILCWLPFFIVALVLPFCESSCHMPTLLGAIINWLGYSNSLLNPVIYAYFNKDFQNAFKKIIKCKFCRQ
Procedure: (§1) HEK293 cells which expressed 5-HT1A or 5-HT1B receptors were cultivated in RPMI 1640 (Life Technologies, Eggenstein, Germany) comprising 10% fetal calf serum. All the culture media were supplemented with 2 mM L-glutamine and 400 mg/l Geneticin G418 (Life Technologies). The cells were grown in a moist atmosphere with 6% CO2 at 37° C. and detached with a buffer comprising 0.0004% EDTA, 0.02% EGTA, 2.68 mM KCl, 1.47 mM KH2PO4, 6.46 mM Na2HPO4 and 136.9 mM NaCl (pH 7.4). The harvested cells were washed once with cold phosphate-buffered Dulbecco's saline solution (PBS), centrifuged (200×g; 10 minutes) and adjusted to a cell density of 10^8 cells per cryovial. After renewed centrifugation, the pellets were resuspended in 1 ml of ice-cold dissolving buffer (5 mM Tris/HCl (pH 7.4), 10% glycerol) and incubated at 4° C. for 30 minutes. The suspension was then centrifuged at 900×g for 10 minutes, the supernatants were removed, and the pellets were stored in liquid nitrogen until used.
(§2) Initially, the affinities of the radio ligands ((^3H)-8-OH-DPAT for 5-HT1A receptors; or (^3H)-5-CT for 5-HT1B receptors) were calculated from saturation plots where triplicate determinations of the specific and nonspecific binding were carried out for each test concentration. Each sample was composed of 50 μg of cellular proteins of the particular membrane preparation, the radio ligand with or without competing compound (5-HT) in a total volume of 0.5 ml. A buffer consisting of 50 mM Tris/HCl (pH 7.4) and 5 mM CaCl2 was used. Incubation was at 22° C. for 9 minutes.
(§3) For Ki determinations, the test compounds were titrated three times in displacement experiments against a fixed concentration of radio ligand ((0.2 nM (^3H)-8-OH-DPAT; or 0.2 nM (^3H)-5-CT). The other test conditions corresponded to those described for the saturation experiments. The total and the nonspecific binding (10 μM 5-HT as competitor of 5-HT1A and 100 μM for 5-HT1B) was determined for each experimental series.
(§4) The incubation for binding and displacement was terminated by filtering and washing the samples on glass fiber filters (GF/B) using a Skatron 7200 cell harvester (Zinsser, Frankfurt, Germany). The sample filters were transferred into scintillation vials comprising 5 ml of scintillator (Ultima Gold XR) and agitated for 1 hour, and then measured in a liquid scintillation counter. Saturation and competition plots were calculated with the aid of a computer program based on LIGAND (Mundson, P J and Reodbard, D; Anal. Biochem. 107, 220 (1980)).

[2] = biological target: T2, 5-HT1B receptors (Homo sapiens, UniProt P28222); experiment: Receptor binding studies, displacement of (3H)-5-CT on membranes of HEK293 cells expressing 5-HT1B receptors; conditions: 0.2 nM (3H)-5-CT, 22° C.
T2 construct: expressed in transfected cells; host or cells: HEK293
Procedure: as §1, §2, §3, §4

[3] = tested on: serotonin release in the cortex; conditions: after systemic administration; cited from earlier work

T2 sequence (P28222 whole entry): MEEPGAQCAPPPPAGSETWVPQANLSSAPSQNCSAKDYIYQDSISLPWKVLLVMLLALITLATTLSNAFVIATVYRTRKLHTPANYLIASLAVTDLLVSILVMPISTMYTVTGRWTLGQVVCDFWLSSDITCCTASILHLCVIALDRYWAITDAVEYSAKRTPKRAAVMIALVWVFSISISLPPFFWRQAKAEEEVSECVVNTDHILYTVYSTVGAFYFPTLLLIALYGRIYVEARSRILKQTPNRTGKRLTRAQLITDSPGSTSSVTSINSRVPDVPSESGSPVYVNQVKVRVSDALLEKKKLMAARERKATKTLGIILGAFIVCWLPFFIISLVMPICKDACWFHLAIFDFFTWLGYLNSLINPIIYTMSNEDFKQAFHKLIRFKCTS

Structure (SMILES)	Ki [1]	Ki [2]	melting point	serotonin release in the cortex [3]
CN1CCc2c(sc3ncn(CCN4CCN(c5nsc6cccc(Cl)c56)CC4)c(=O)c23)C1 [Example 5, 3-{2-[4-(4-Chloro-1,2-benzisothiazol-3-yl)piperazin-1-yl]ethyl}-7-methyl-5,6,7,8-tetrahydropyrido[4′,3′:4,5]thieno[2,3-d]pyrimidin-4(3H)-one]			88 to 89 °C	
CN1CCc2c(sc3ncn(CCN4CCN(c5nc6cc(C(F)(F)F)ccc6s5)CC4)c(=O)c23)C1 [Example 6, 7-Methyl-3-(2-{4-[5-(trifluoromethyl)-1,3-benzothiazol-2-yl]piperazin-1-yl}ethyl)-5,6,7,8-tetrahydropyrido[4′,3′:4,5]thieno[2,3-d]pyrimidin-4(3H)-one]			166 to 167 °C	
COc1ccc2onc(N3CCN(CCn4cnc5sc6c(c5c4=O)CCN(C)C6)CC3)c2c1 [Example 15, 4-(5-Methoxy-1,2-benzisoxazol-3-yl)-1-[2-(7-methyl-4-oxo-5,6,7,8-tetrahydropyrido[4′,3′:4,5]thieno[2,3-d]pyrimidin-3(4H)-yl)ethyl]piperazin-1-ium chloride]	13.7 nM	7.9 nM		
COc1ccc2c(c1)c(C1CCN(CCn3cnc4sc5c(c4c3=O)CCN(C)C5)CC1)cn2C [Example 16, 4-(5-Methoxy-1-methyl-1H-indol-3-yl)-1-[2-(7-methyl-4-oxo-5,6,7,8-tetrahydropyrido[4′,3′:4,5]thieno[2,3-d]pyrimidin-3(4H)-yl)ethyl]piperidinium chloride]	1.3 nM	2.3 nM		
CN1CCc2c(sc3ncn(CCN4CC=C(c5c[nH]c6ccccc56)CC4)c(=O)c23)C1 [Example 20, 3-{2-[4-(1H-Indol-3-yl)-3,6-dihydropyridin-1(2H)-yl]ethyl}-7-methyl-5,6,7,8-tetrahydropyrido[4′,3′:4,5]thieno[2,3-d]pyrimidin-4(3H)-one]	1.2 nM	1 nM		
CN1CCc2c(sc3ncn(CCN4CC=C(c5c[nH]c6ncccc56)CC4)c(=O)c23)C1 [Example 21, 1-[2-(7-Methyl-4-oxo-5,6,7,8-tetrahydropyrido[4′,3′:4,5]thieno[2,3-d]pyrimidin-3(4H)-yl)ethyl]-4-(1H-pyrrolo[2,3-b]pyridin-3-yl)-1,2,3,6-tetrahydropyridinium acetate]	14.6 nM	1 nM		
CN1CCc2c(sc3ncn(CCN4CCC(c5cc(-c6cccs6)[nH]n5)CC4)c(=O)c23)C1 [Example 24, 1-[2-(7-Methyl-4-oxo-5,6,7,8-tetrahydropyrido[4′,3′:4,5]thieno[2,3-d]pyrimidin-3(4H)-yl)ethyl]-4-[5-(2-thienyl)-1 H-pyrazol-3-yl]piperidinium chloride]	98.3 nM	286 nM		
CN1CCc2c(sc3ncn(CCN4CC=C(c5csc6ccccc56)CC4)c(=O)c23)C1 [Example 28, 3-{2-[4-(1-Benzothien-3-yl)-3,6-dihydropyridin-1 (2H)-yl]ethyl}-7-methyl-5,6,7,8-tetrahydropyrido[4′,3′:4,5]thieno[2,3-d]pyrimidin-4(3H)-one]	1.3 nM	2 nM		
COc1ccc2[nH]cc(C3=CCN(CCn4cnc5sc6c(c5c4=O)CCN(C)C6)CC3)c2c1 [Example 32, 3-{2-[4-(5-methoxy-1H-indol-3-yl)-3,6-dihydropyridin-1(2H)-yl]ethyl}-7-methyl-5,6,7,8,-tetrahydropyrido[4′,3′:4,5]thieno[2,3-d]pyrimidin-4(3H)-one]	0.5 nM	0.6 nM		
COc1ccc(NC(=O)c2ccc(-c3ccc(-c4noc(C)n4)cc3C)cc2)cc1N1CCN(C)CC1 [GR 127 935]				reduced

The next lines start with results.

Ki [1]	Ki [2]	melting point	Structure (SMILES)	serotonin release in the cortex [3]
1.4 nM	0.9 nM	82 to 84 °C	CN1CCc2c(sc3ncn(CCN4CCN(c5nsc6ccccc56)CC4)c(=O)c23)C1 [Example 4, 3-{2-[4-(1,2-Benzisothiazol-3-yl)piperazin-1-yl]ethyl}-7-methyl-5,6,7,8-tetrahydropyrido[4′,3′:4,5]thieno[2,3-d]pyrimidin-4(3H)-one]	
		160 to 162 °C	CN1CCc2c(sc3ncn(CCN4CCN(c5nc6ccc(Cl)cc6s5)CC4)c(=O)c23)C1 [Example 7, 3-{2-[4-(6-Chloro-1,3-benzothiazol-2-yl)piperazin-1-yl]ethyl}-7-methyl-5,6,7,8-tetrahydropyrido[4′,3′:4,5]thieno[2,3-]pyrimidin-4(3H)-one]	
		227 to 229 °C	CN1CCc2c(sc3ncn(CCN4CCN(c5nc6ccccc6[nH]5)CC4)c(=O)c23)C1 [Example 8, 3-{2-[4-(1H-Benzimidazol-2-yl)piperazin-1-yl]ethyl}-7-methyl-5,6,7,8-tetrahydropyrido[4′,3′:4,5]thieno[2,3-d]pyrimidin-4(3H)-one]	
6.2 nM	4.5 nM		Cc1ccc2onc(N3CCN(CCn4cnc5sc6c(c5c4=O)CCN(C)C6)CC3)c2c1 [Example 9, 7-Methyl-3-{2-[4-(5-methyl-1,2-benzisoxazol-3-yl)piperazin-1-ium-1-yl]ethyl}-4-oxo-3,4,5,6,7,8-hexahydropyrido[4′,3′:4,5]thieno[2,3-d]spyrimidin-7-ium dichloride]	
		130 to 132 °C	CN1CCc2c(sc3ncn(CCN4CCN(c5nc6ccccc6o5)CC4)c(=O)c23)C1 [Example 10, 3-{2-[4-(1,3-Benzoxazol-2-yl)piperazin-1-yl]ethyl}-7-methyl-5,6,7,8-tetrahydropyrido[4′,3′:4,5]thieno[2,3-d]pyrimidin-4(3H)-one]	
		151 to 153 °C	CN1CCc2c(sc3ncn(CCN4CCN(c5nc6ccccc6s5)CC4)c(=O)c23)C1 [Example 11, 3-{2-[4-(1,3-Benzothiazol-2-yl)piperazin-1-yl]ethyl}-7-methyl-5,6,7,8-tetrahydropyrido[4′,3′:4,5]thieno[2,3-d]pyrimidin-4(3H)-one]	
11.5 nM	3.5 nM		CN1CCc2c(sc3ncn(CCN4CCN(c5n[nH]c6ccccc56)CC4)c(=O)c23)C1 [Example 13, 3-{2-[4-(1H-Indazol-3-yl)piperazin-1-yl]ethyl}-7-methyl-5,6,7,8-tetrahydropyrido[4′,3′:4,5]thieno[2,3-d]pyrimidin-4(3H)-one]	
42.7 nM	24.3 nM		CN1CCc2c(sc3ncn(CCN4CCN(c5snc6ccccc56)CC4)c(=O)c23)C1 [Example 31, 4-(2,1-Benzisothiazol-3-yl)-1-[2-(7-methyl-4-oxo-5,6,7,8-tetrahydropyrido[4′,3′:4,5]thieno[2,3-d]pyrimidin-3(4H)-yl)ethyl]piperazin-1-ium chloride]	
